Test results: patent US4173648A, “3β-Hydroxy-18β-olean-9-en-30-oic acids” (I.S.F. SpA, priority 1977, dated 1979)
Where a name gives a salt, the structure may show the parent alone.

Key:
[1] = LD50 in mice per os (acute toxicity); details: mouse, in vivo, po
[2] = system: male Wistar rats; assay: anti-diuretic action, urinary sodium and potassium (method of F. M. Sullivan); format: in vivo, rat (Wistar); details: for Na+/K+ ratio (urine): gastric probe, urine of five hours after treatment; for % inhibition of the ratio Na+/K+: ratio in controls = 100
Protocol: The urine produced in the five hours after treatment are collected and the potassium and sodium contents are determined. The tests were carried out at two dosage levels, 30 and 60 mg/kg, using, for each dosage level, 8 pairs of animals.

[3] = system: male Swiss mice; assay: anti-ulcer action, cold stress by immersion in water and contention stress (method of C. J. Pfeiffer); format: in vivo, mouse (Swiss); details: controls = 100
Protocol: The test was carried out on male Swiss mice with an average body weight of 23 g. subjected to cold stress by immersion in water and to a contention stress according to the method of C. J. Pfeiffer ("Peptic ulcer", Munksgaard, 1971, page 84). Three dosage levels of 25, 50 and 100 mg/kg and 15 animals for each dosage level were used.
The anti-ulcer action of the compounds was evaluated by calculating the percentage average inhibition, which indicates the inhibition of the ulcer seriousness index in the treated animals, taking 100 as the seriousness index of the controls.

Row | Structure (SMILES) | LD50 [1] | Na+/K+ ratio (urine) ([2]; 30 mg/kg) | % inhibition of the ratio Na+/K+ ([2]; 30 mg/kg) | Na+/K+ ratio (urine) ([2]; 60 mg/kg) | % inhibition of the ratio Na+/K+ ([2]; 60 mg/kg) | % average inhibition (of the ulcer seriousness index) ([3]; 25 mg/kg os) | % average inhibition (of the ulcer seriousness index) ([3]; 50 mg/kg os) | % average inhibition (of the ulcer seriousness index) ([3]; 100 mg/kg os)
1 | CC1(C)[C@@H](OC(=O)CCC(=O)O)CC[C@]2(C)C3=CCC4[C@@H]5C[C@@](C)(C(=O)O)CC[C@]5(C)CC[C@@]4(C)[C@]3(C)CC[C@@H]12 (stereo partly drawn) [Disodium salt of 3β-(3-carboxypropionoxy)-18β-olean-9-en-30-oic acid] | 1000 mg/kg | 3.18 | 0% | 3.59 | -3% | 13% | 22.5% | 70.5%
2 | CC1(C)[C@@H](OC(=O)CCC(=O)O)CC[C@]2(C)[C@H]3C(=O)C=C4[C@@H]5C[C@@](C)(C(=O)O)CC[C@]5(C)CC[C@@]4(C)[C@]3(C)CC[C@@H]12 [carbenoxolone, disodium salt of glycycrrhetinic acid 3-hemisuccinate] | 700 mg/kg | 1.81 | 43% | 1.24 | 64% | 29.5% | 29% | 63.5%
